Measured values: the supplement of paper PMC7108870

Assays:
HEK293sieSTAT3(Y640F) [1] = assay: drug sensitivity score (DSS), cytotoxicity CellTox Green (DSS (dimensionless)); higher = more cytotoxic; extreme values may be limits of the assay; settings: 72 h; STAT3 variant: Y640F (constitutively active)
Procedure, shortened: (§1)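 A drug sensitivity score, based on the area of the dose-response curve, was calculated in Breeze after normalising values to negative and positive control wells. It came from HEK293 cells carrying a STAT3-dependent luciferase reporter and overexpressing wild-type or mutant STAT3, plated at 20 μl of 100,000 cells/ml onto compounds acoustically pre-plated at 5 concentrations in 10-fold dilutions in 384-well plates. Following 72 hours at 37°C and 5% CO2, CellTox Green fluorescence (485/520 nm) and then CellTiter-Glo luminescence were read on a PHERAstar FS.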

HEK293sieSTAT3(wt) [2] = assay: as above; settings: 72 h; STAT3 variant: wild type
Procedure, shortened: as §1

HEK293sieSTAT3(Y640F) [3] = assay: drug sensitivity score (DSS), viability CellTiter-Glo (DSS (dimensionless)); higher = more growth inhibition; extreme values may be limits of the assay; settings: 72 h; STAT3 variant: Y640F (constitutively active)
Procedure, shortened: as §1

HEK293sieSTAT3(wt) [4] = assay: as above; settings: 72 h; STAT3 variant: wild type
Procedure, shortened: as §1

SMILES | drug sensitivity score (HEK293sieSTAT3(Y640F) [1]) | drug sensitivity score (HEK293sieSTAT3(wt) [2]) | drug sensitivity score (HEK293sieSTAT3(Y640F) [3]) | drug sensitivity score (HEK293sieSTAT3(wt) [4])
CS(=O)(=O)CCNCc1ccc(-c2ccc3ncnc(Nc4ccc(OCc5cccc(F)c5)c(Cl)c4)c3c2)o1 [Lapatinib] (top concentration tested 1000 nM) | 0 | 2.09 | 0 | 0
O=C(c1ccc(OCCN2CCCCC2)cc1)c1c(-c2ccc(O)cc2)sc2cc(O)ccc12 [Raloxifene] (top concentration tested 10000 nM) | 0 | 6.26 | 3.8 | 5.05
CNCc1ccc(-c2[nH]c3cc(F)cc4c3c2CCNC4=O)cc1 [Rucaparib] (top concentration tested 10000 nM) | 0 | 0.89 | 4.37 | 4.23
COc1cc2c(Nc3ccc(Cl)c(Cl)c3F)ncnc2cc1OC[C@@H]1C[C@@H]2CN(C)C[C@@H]2C1 [XL-647] (top concentration tested 1000 nM) | 0 | 0 | 1.72 | 0.88
N.N.[Cl][Pt][Cl] [Cisplatin] (top concentration tested 100000 nM) | 5.83 | 6.89 | 19.6 | 18.9
C[C@]12O[C@H](C[C@]1(O)CO)n1c3ccccc3c3c4c(c5c6ccccc6n2c5c31)CNC4=O [Lestaurtinib] (top concentration tested 1000 nM) | 7.22 | 4.55 | 9.27 | 8.27
CC[C@H](CO)Nc1nc(NCc2ccccc2)c2ncn(C(C)C)c2n1 [Seliciclib] (top concentration tested 10000 nM) | 2.48 | 6.62 | 6.02 | 6.69
O=C(NOCCO)c1ccc2cncn2c1Nc1ccc(I)cc1F [GDC-0623] (top concentration tested 2500 nM) | 0 | 0 | 0 | 0
COc1cc(Nc2c(C#N)cnc3cc(OCCCN4CCN(C)CC4)c(OC)cc23)c(Cl)cc1Cl [Bosutinib] (top concentration tested 10000 nM) | 7.59 | 7.02 | 7.76 | 8.54
N#Cc1ccc(COC[C@H]2O[C@@H](n3c(NCc4ccc(Cl)c(Cl)c4)nc4c(N)ncnc43)[C@H](O)[C@@H]2O)cc1 (top concentration tested 10000 nM) | 0 | 0.11 | 4.87 | 3.11
CC(C)C[C@H](NC(=O)[C@@H](COC(C)(C)C)NC(=O)[C@H](Cc1ccc(O)cc1)NC(=O)[C@H](CO)NC(=O)[C@H](Cc1c[nH]c2ccccc12)NC(=O)[C@H](Cc1cnc[nH]1)NC(=O)[C@@H]1CCC(=O)N1)C(=O)N[C@@H](CCCNC(=N)N)C(=O)N1CCC[C@H]1C(=O)NNC(N)=O [Goserelin] (top concentration tested 10000 nM) | 0 | 0 | 2.1 | 1.57
O=C(O)c1ccc2c(c1)nc(Nc1cccc(Cl)c1)c1ccncc12 [Silmitasertib] (top concentration tested 10000 nM) | 0 | 1.84 | 6.52 | 7.79
CC(=O)OC[C@H]1O[C@@H]([S-])[C@H](OC(C)=O)[C@@H](OC(C)=O)[C@@H]1OC(C)=O.CCP(CC)CC.[Au+] [Auranofin] (top concentration tested 2500 nM) | 6.36 | 9.45 | 9.25 | 8.14
CCc1c(C(=O)C(N)=O)c2c(OCC(=O)O)cccc2n1Cc1ccccc1 [Varespladib] (top concentration tested 10000 nM) | 0 | 0 | 3.29 | 0
COc1ccc(COc2cc3oc(=O)c4cc(C(C)O)ccc4c3cc2OC)cc1 (stereo unspecified) [Palomid-529] (top concentration tested 10000 nM) | 0 | 3.06 | 2.18 | 2.21
Cc1sc2c(c1C)C(c1ccc(Cl)cc1)=N[C@@H](CC(=O)Nc1ccc(O)cc1)c1nnc(C)n1-2 [OTX015] (top concentration tested 10000 nM) | 3.12 | 10.9 | 12.2 | 10.5
CN(N=O)C(=O)N[C@@H](C=O)[C@@H](O)[C@H](O)[C@H](O)CO [Streptozocin] (top concentration tested 10000 nM) | 0 | 0 | 0 | 1.93
Clc1ccc(C(c2ccccc2Cl)C(Cl)Cl)cc1 (stereo unspecified) [Mitotane] (top concentration tested 10000 nM) | 0 | 0 | 0 | 0
CN(C)c1cc2c(cc1Sc1nc3c(N)nccc3n1CCNCC(C)(C)C)OCO2 [CUDC-305] (top concentration tested 10000 nM) | 7.26 | 17.6 | 20 | 24.6
CCNC(=O)CCC/C=C\C[C@@H]1[C@@H](/C=C/[C@@H](O)CCc2ccccc2)[C@H](O)C[C@@H]1O [Bimatoprost] (top concentration tested 5500 nM) | 0 | 0 | 0 | 0
CNC(=O)c1ccc(N2C(=S)N(c3ccc(C#N)c(C(F)(F)F)c3)C(=O)C2(C)C)cc1F [Enzalutamide] (top concentration tested 10000 nM) | 0 | 0 | 0.6 | 0
O=C(c1cc(Cc2n[nH]c(=O)c3ccccc23)ccc1F)N1CCN(C(=O)C2CC2)CC1 [Olaparib] (top concentration tested 10000 nM) | 0 | 0.67 | 4.22 | 3.58

SMILES | drug sensitivity score (HEK293sieSTAT3(Y640F) [1]) | drug sensitivity score (HEK293sieSTAT3(wt) [2]) | drug sensitivity score (HEK293sieSTAT3(Y640F) [3]) | drug sensitivity score (HEK293sieSTAT3(wt) [4])
Cc1cccc(CC(=O)N2CCc3c2ccc(-c2cn(C)c4ncnc(N)c24)c3F)n1 (top concentration tested 2500 nM) | 0 | 0.89 | 0 | 0
CC(C)N(CCCNC(=O)Nc1ccc(C(C)(C)C)cc1)C[C@H]1O[C@@H](n2cc(Br)c3c(N)ncnc32)[C@H](O)[C@@H]1O [SGC0946] (top concentration tested 10000 nM) | 0.07 | 6.85 | 3.05 | 7.15
Cc1ccc(-n2nc(C(C)(C)C)cc2NC(=O)Nc2ccc(OCCN3CCOCC3)c3ccccc23)cc1 [Doramapimod] (top concentration tested 10000 nM) | 0.14 | 0 | 5.05 | 3.87
CC[C@@]1(O)C(=O)OCc2c1cc1n(c2=O)Cc2cc3ccccc3nc2-1 [Camptothecin] (top concentration tested 5000 nM) | 9.78 | 15.8 | 28.5 | 29.1
C[C@]1(c2nc3c(C(N)=O)cccc3[nH]2)CCCN1 [Veliparib] (top concentration tested 10000 nM) | 0 | 0.43 | 0 | 2.28
C#Cc1cccc(Nc2ncnc3cc(OC)c(OCCCCCCC(=O)NO)cc23)c1 [CUDC-101] (top concentration tested 10000 nM) | 7.69 | 3.02 | 16.1 | 9.59
Cc1cnc(Nc2ccc(OCCN3CCCC3)cc2)nc1Nc1cccc(S(=O)(=O)NC(C)(C)C)c1 [Fedratinib] (top concentration tested 10000 nM) | 5.36 | 9.22 | 7.35 | 8.5
Cn1cc(-c2ccc3nnc(C(F)(F)c4ccc5ncccc5c4)n3n2)cn1 (top concentration tested 10000 nM) | 0 | 0 | 0 | 3.09
CC(C)NC(=O)COc1cccc(-c2nc(Nc3ccc4[nH]ncc4c3)c3ccccc3n2)c1 [SLx-2119] (top concentration tested 5000 nM) | 0 | 0.57 | 10.7 | 5.8
CC(C)(C)c1nc(-c2cccc(NS(=O)(=O)c3c(F)cccc3F)c2F)c(-c2ccnc(N)n2)s1 [Dabrafenib] (top concentration tested 2500 nM) | 0 | 0 | 0 | 0
N#CC[C@H](C1CCCC1)n1cc(-c2ncnc3[nH]ccc23)cn1 [Ruxolitinib] (top concentration tested 10000 nM) | 0.39 | 0.1 | 2.89 | 3.2
CS(=O)(=O)OCCCCOS(C)(=O)=O [Busulfan] (top concentration tested 100000 nM) | 0 | 1.26 | 0.42 | 4.87
C[C@@H]1C=C2C(=O)O[C@@H]3CC[C@H](C1)[C@]23O [Galiellalactone] (top concentration tested 25000 nM) | 0.48 | 3.45 | 4.57 | 4.61
Nc1nc(OCc2cc(Br)cs2)c2[nH]cnc2n1 [Lomeguatrib] (top concentration tested 10000 nM) | 0 | 0.01 | 2.48 | 0.39
Nc1nc(NC2CC2)cc(-c2cccc(Cl)c2Cl)n1 [TH588] (top concentration tested 25000 nM) | 2.04 | 5.04 | 3.43 | 6.38
COc1cc2c(Oc3ccc(NC(=O)C4(C(=O)Nc5ccc(F)cc5)CC4)cc3F)ccnc2cc1OCCCN1CCOCC1 [Foretinib] (top concentration tested 1000 nM) | 0 | 5.97 | 6.63 | 5.99
Cn1ncc(Cl)c1-c1cc(C(=O)N[C@H](CN)Cc2cccc(F)c2)sc1Cl [Afuresertib] (top concentration tested 1000 nM) | 0 | 0 | 6.74 | 9.38
CCCC(CCC)C(=O)O [Valproic acid] (top concentration tested 1000000 nM) | 0 | 0 | 3.24 | 3.15
Cn1c(=O)c(F)c(Nc2ccc(I)cc2F)c2c(=O)n(C[C@@H](O)CO)cnc21 [TAK-733] (top concentration tested 1000 nM) | 0 | 0 | 1.47 | 0
CC(C)[C@H](C(=O)Nc1ccc(C(=O)NO)cc1)c1ccccc1 [AR-42] (top concentration tested 10000 nM) | 5.41 | 8.7 | 14.4 | 16.5
Cc1cc([C@@H](C)Nc2ccccc2C(=O)O)c2nc(N3CCOCC3)cc(=O)n2c1 [AZD-6482] (top concentration tested 2500 nM) | 0 | 0.89 | 1.08 | 1.97
Oc1ccc2c(c1)CC[C@H](c1ccccc1)[C@@H]2c1ccc(OCCN2CCCC2)cc1 [Lasofoxifene] (top concentration tested 1000 nM) | 0 | 0 | 2.47 | 3.21
